We go through one molecule from US8426448B2, “1,5-diphenyl-pyrrolidin-2-one compounds as CB-1 ligands” (Eli Lilly and Company, priority 2008, dated 2013).

Where a name gives a salt, the structure may show the parent alone.

In one data set the target is T1, rCB-1 (Rattus norvegicus, UniProt P20272).
T1 construct: purchased Applied Cell Sciences, Rockville, Md; host or cells: CHO cell membranes
Nature of the data set: rCB1-CHO antagonist mode SPA GTP-γ-35S binding assay. It is filed as biochemical. The settings on record: antagonist mode vs methanandamide; read-out: rCB-1 SPA GTPγS CHO Membrane Antagonist Kb. On the procedure: (§1) Compounds of the present invention may be tested for functional activity at the CB-1 and CB-2 receptors in both agonist and antagonist modes using SPA (Scintillation Proximity Assay) based GTP-γ-^35S binding assays. All assay components are prepared in assay buffer (20 mM HEPES, 100 mM NaCl, 5 mM MgCl2, pH 7.4) at room temperature. Semi-log dilutions of test compound are prepared in assay buffer containing BSA (0.125% final conc.) for the agonist mode assays. For the antagonist mode assays, test compounds are prepared in the same manner but also include an 80% efficacious dose of a full agonist (methanandamide). GTP-γ^35S binding for the antagonist assay may be measured in a 96 well format using a modification of an antibody capture technique previously described. (DeLapp, N W, et al. (1999) J Pharmacol Exp Ther 289:946-955.) The CB-2 receptor agonist activity may be measured using a similar method using hCB2-Sf9 membranes. The CB-1 receptor agonist activity may be measured using a whole membrane capture technique using hCB1-CHO membranes. All incubations are done at room temperature.
(§2) hCB1-CHO or rCB1-CHO membranes (Applied Cell Sciences, Rockville, Md.) and GDP (1 μM final) are added to ice cold assay buffer and homogenized. […] Plates are then centrifuged at 700×g for 10 min. and the radioactivity counted.
(§3) Data are analyzed as follows: Background is subtracted from all wells. […] Percent antagonist inhibition is calculated by first normalizing the data to the signal generated by a saturating concentration of the full agonist (methanandamide). Then the data are analyzed using a 4-parameter logistic reduced fit (Activity Base™ and XLFit3™ from IDBS, Emeryville, Calif.). Kb values are determined using a modification of the Cheng-Prusoff relationship: Kb=IC50/(1+[agonist]/EC50), where “IC50” is determined from a four parameter fit of displacement curves, “[agonist]” is the agonist challenge concentration (nM), and “EC50” is determined from a four parameter fit of a full agonist concentration response curve (Cheng and Prusoff 1973). […]

The next data set is described as follows: Rat oral bioavailability. The class given is in vivo. The conditions noted are these: Sprague-Dawley, plasma, fasted male SD rats, IV 0.25 mg/kg (20% Pharmasolve, 10% HPBCD, pH 3), PO 1 mg/kg (1% CMC, 0.5% SLS, 0.5% AF), mean±s.d, n=3, based on AUC0-∞. On the procedure:
(§4) Cohorts of three or four 250-450 gram male Sprague-Dawley rats or approximately 10 kg Beagle dogs (female or male) are used. […] Dogs are administered i.v. by cannulated cephalic vein and blood collections are by jugular vein. Animals are first dosed at 0.25 mg/kg i.v. and blood samples (0.2 mL) are then collected using EDTA as an anticoagulant at 0.0830, 0.25, 0.50, 1, 2, 4, 8, 12, 24, 48, 72, 96, and 120 hours. Next after at least two days and after 18-24 hours fasting, the animals are dosed at 1.0 mg/kg by oral gavage. During the course of a study the total of blood (ml) collected is not to exceed 1% of total body weight in grams. Should larger blood volumes be required, the sampled blood volume is replace with heparinized whole blood from a donor animal. When using a cross-over study design, rats receive a volume of heparinized whole blood following the final sample of each study day approximately equal to that removed during study.
(§5) Compound plasma concentrations are measured by LC/MS/MS assays. Data are then analyzed using standard non-compartmental pharmacokinetic analysis. Oral bioavailability is calculated as: (AUC0-infinity,oral/AUC0-infinity,i.v.)×(Dose,i.v./Dose,oral)×100%

For a further data set, the target named is T2, CYP2D6 (Homo sapiens, UniProt P10635).
T2 construct: pooled, mixed gender, human liver microsomes; from tissue; host or cells: pooled, mixed gender human liver microsomes
T2 sequence (P10635 whole entry): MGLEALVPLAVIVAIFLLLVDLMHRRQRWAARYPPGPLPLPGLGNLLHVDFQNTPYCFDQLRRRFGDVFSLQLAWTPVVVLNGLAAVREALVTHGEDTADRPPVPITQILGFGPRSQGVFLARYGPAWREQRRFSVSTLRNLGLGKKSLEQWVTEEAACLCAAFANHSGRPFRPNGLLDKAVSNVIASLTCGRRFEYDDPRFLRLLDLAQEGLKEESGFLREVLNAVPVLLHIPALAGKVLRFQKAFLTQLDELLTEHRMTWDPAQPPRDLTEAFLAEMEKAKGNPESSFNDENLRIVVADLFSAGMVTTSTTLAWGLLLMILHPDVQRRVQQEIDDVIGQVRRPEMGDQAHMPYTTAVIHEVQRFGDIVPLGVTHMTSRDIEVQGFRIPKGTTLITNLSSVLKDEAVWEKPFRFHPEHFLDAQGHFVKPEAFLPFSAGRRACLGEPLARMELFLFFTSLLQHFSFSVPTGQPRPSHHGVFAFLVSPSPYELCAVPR
Nature of the data set: Human CYP fingerprinting, quinidine inhibition. It is filed as in vitro ADME. The settings on record: 4 μM, human liver microsomes, 30 min, 10 μM quinidine. On the procedure:
CYP fingerprinting is well established technique and is used as an indication of potential risk of drug-drug interactions in the pharmaceutical sciences. Compounds of the present invention may be assayed by well known methods, essentially as follows: Compounds are incubated at 37° C. at a final concentration of 4 μM with pooled, mixed gender, human liver microsomes and 1 mM NADPH (Nicotine Adenine Dinucleotide Phosphate) (final conc.) for 0 and 30 min. without any CYP inhibitor and with each CYP inhibitor in separate incubations for 30 min. Each inhibitor is specific for an individual cytochrome P450. The specific inhibitors used for CYPs 2C9, 2D6 and 3A were sulfaphenazole, quinidine and ketoconazole, respectively. Ketoconazole (CYP3A) is made up at 25 mM in DMSO and then diluted in buffer to a final concentration of 10 μM. Quinidine (CYP2D6) is made up at 5 mM in 50/50 acetonitrile/water and then diluted in buffer to a final concentration of 10 μM. Sulfaphenazole (CYP2C9) is made up at 100 mM in DMSO and then diluted in buffer to a final concentration of 5 μM. Samples are analyzed by LC-MS in positive or negative electrospray mode using a Waters Acquity Ultra Performance LC coupled to a MicroMass Q-T of-2 mass spectrometer.
Data are analyzed using MetaboLynx™ version 4.1. […]
(In general: Liver microsomes are a subcellular fraction often used to study metabolism.)

The target in another data set is hCB-1 (Homo sapiens, UniProt P21554). Nature of the data set: hCB1-CHO antagonist mode SPA GTP-γ-35S binding assay. It is filed as biochemical. On the set-up: purchased Applied Cell Sciences, Rockville, Md; host or cells: CHO cell membranes. The conditions noted are these: antagonist mode vs methanandamide; read-out: hCB-1 SPA GTPγS CHO Membrane Antagonist Kb. On the procedure: as §1, §2, §3
Chain of hCB-1 (P21554 whole entry): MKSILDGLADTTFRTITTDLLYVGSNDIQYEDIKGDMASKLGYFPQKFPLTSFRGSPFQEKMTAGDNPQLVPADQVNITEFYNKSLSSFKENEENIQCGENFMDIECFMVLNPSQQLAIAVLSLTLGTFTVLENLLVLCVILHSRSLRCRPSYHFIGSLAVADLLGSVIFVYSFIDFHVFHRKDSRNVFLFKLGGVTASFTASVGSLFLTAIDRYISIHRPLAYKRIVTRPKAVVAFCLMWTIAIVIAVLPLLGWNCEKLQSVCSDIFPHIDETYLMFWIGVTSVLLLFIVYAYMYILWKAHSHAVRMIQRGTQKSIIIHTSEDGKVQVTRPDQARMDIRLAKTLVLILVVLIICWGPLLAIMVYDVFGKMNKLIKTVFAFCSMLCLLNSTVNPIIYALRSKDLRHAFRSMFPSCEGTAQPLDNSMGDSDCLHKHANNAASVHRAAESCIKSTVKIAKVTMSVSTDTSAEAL

The nature of another data set: Dog oral bioavailability. The settings on record: plasma; fasted female beagle dog; IV 0.25 mg/kg, PO 1 mg/kg; mean±s.d, n=2; based on AUC0-∞. The class given is in vivo. On the procedure: as §4, §5

T1 sequence (P20272 whole entry): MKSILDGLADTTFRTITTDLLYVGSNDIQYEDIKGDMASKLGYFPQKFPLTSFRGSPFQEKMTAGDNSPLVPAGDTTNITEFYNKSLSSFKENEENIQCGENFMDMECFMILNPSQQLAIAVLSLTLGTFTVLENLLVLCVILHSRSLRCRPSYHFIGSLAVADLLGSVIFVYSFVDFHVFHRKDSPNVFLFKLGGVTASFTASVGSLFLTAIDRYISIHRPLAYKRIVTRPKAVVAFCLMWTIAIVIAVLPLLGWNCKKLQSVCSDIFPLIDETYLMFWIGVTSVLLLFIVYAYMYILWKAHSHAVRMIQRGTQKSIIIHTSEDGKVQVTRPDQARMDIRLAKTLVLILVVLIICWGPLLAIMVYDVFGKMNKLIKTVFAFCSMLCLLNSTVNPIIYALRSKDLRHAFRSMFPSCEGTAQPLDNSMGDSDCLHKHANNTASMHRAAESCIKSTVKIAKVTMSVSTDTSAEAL

Broadly, the Kb is the affinity of an antagonist, worked out from how it opposes an agonist. The bioavailability is the share of a dose that reaches the circulation, judged against a reference dose that is usually intravenous. With `CC(C)(N[C@@H]1C[C@H](c2cccc(C(F)(F)F)c2)N(c2ccc(OC(F)(F)F)cc2)C1=O)c1cccc(C(F)(F)F)n1` [28 HCl salt, (3R,5R)-3-[1-methyl-1-(6-trifluoromethyl-pyridin-2-yl)-ethylamino]-1-(4-trifluoromethoxy-phenyl)-5-(3-trifluoromethyl-phenyl)-pyrrolidin-2-one], the figures for the antagonist dissociation constant (Kb) on rCB-1 and at hCB-1 were 196 pM and 464 pM, respectively. Further, the bioavailability is 40 ± 6% in the data set “Rat oral bioavailability” and 32 ± 18% in the data set “Dog oral bioavailability”. In addition, on CYP2D6, the “Risk of Drug Drug Interaction (DDI) CYP2D6” value is given as “Low”.
